Assay results as given in patent publication US11613780B2, “Materials and methods for identifying gyrase inhibitors” (THE FLORIDA INTERNATIONAL UNIVERSITY BOARD OF TRUSTEES, priority 2016, dated 2023).
Entries after “also recorded” stand apart in the source; their conditions may differ.

Experiments:
[1] = system: expression of firefly luciferase under the control of the PgyrA (screen for DNA gyrase inhibitors); assay: Firefly luciferase expression from PgyrA divergently coupled to IPTG-induced PT7Al/O4 (luciferase assay); assay type: cell-based, E. coli; details: for expression of firefly luciferase (other antibiotics): FIG. 12F, antibiotics that are not gyrase inhibitors; for expression of firefly luciferase of FL #1181: FL #1181, in the presence of IPTG, FIG. 12E
Procedure: (§1) FIGS. 5A-5D. (FIG. 5A) and (FIG. 5B) Inhibition of the supercoiling-sensitive PgyrA by E. coli […] on the chromosome. E. coli strains FL1181 (MG1655(DE3)ΔlacZ attTn7::PT7Al/O4lacZ-PgyrAluc; squares) and FL1182 (VS111(DE3)ΔlacZ attTn7::PT7Al/O4lacZ-PgyrAluc; circles) were used. The activities of β-galactosidase (Miller's units) and firefly luciferase (RLU) were plotted against the IPTG concentration added to the cell cultures. […] Overnight cell cultures were diluted 100-fold and grown until OD600 reached 0.2. Then 0.5 mM of IPTG and various concentrations of ciprofloxacin or other antibiotics were added to the cell cultures. After additional 30 min incubation, the activities of β-galactosidase and firefly luciferase were measured as described under Materials and Methods. (FIG. 5C) Ciprofloxacin inhibited the expression of β-galactosidase.
Briefly, a 5.1 kb DNA fragment carrying the divergently coupled PgyrA and PT7Al/O4 promoters with the luc and lacZ genes was inserted to the attTn7 site of the E. coli chromosome (84 min of the chromosome) to generate FL1181 and FL1182. In both strains, the IPTG-inducible PT7Al/O4 controls the expression of β-galactosidase. Using similar approach, the following E. coli strains were generated: FL1181, FL1182, FL1198, FL1199, FL1200, FL1202, FL1203, and FL1204.
Luciferase Assay was used to verify the expression of luciferase in various E. coli strains carrying different plasmid DNA templates. Briefly, E. coli cells carrying different plasmids were grown overnight in LB. Antibiotics were added to LB as needed. The overnight culture was then diluted (1:100) in fresh LB in the presence of different concentrations of IPTG, and grown until the OD600 nm reached approximately 0.5. Next, 50 μl of cells were mixed with 10 μl of 1 M K2HPO4 (pH 7.8) and 20 mM EDTA, quickly frozen in liquid nitrogen for 3 min, and equilibrated to room temperature for 30 min to yield about 60 μl of cell lysate. Then, the cell lysate was added with 300 μl freshly prepared lysis mix containing 1×cell culture lysis reagent (CCLR), 1.25 mg/ml lysozyme, and 2.5 mg/ml BSA, and incubated for 10 min at room temperature. Finally, 100 μl of Luciferase Assay Reagent (Promega Corporation, Madison, Wis.) was added to 20 μl of the cell lysate and used for light measurement by using a Promega GloMax 20/20 Single-Tube Luminometer.

[2] = system: expression of β-galactosidase (lacZ) under the control of PT7Al/O4; assay: β-galactosidase expression from PT7Al/O4 (Miller's assay); assay type: cell-based, E. coli; details: FL1181 and FL1182, 0.5 mM IPTG, 30 min incubation; FIG. 5C
Procedure: as §1, with “β-galactosidase. […]” for “β-galactosidase.”
The expression level of β-galactosidase was measured by Miller's assay as described by Miller et al. Briefly, 100 mL of LB was inoculated with 1 mL of overnight bacterial cell culture until OD600 reaches about 0.2. […] After cell debris was removed by centrifugation at 13,000 rpm for 1 min, OD420 and OD550 were measured in a Cary 50 spectrophotometer. β-Galactosidase activities (E) were calculated using the following equation: […]

SMILES | expression of firefly luciferase (other antibiotics) [1] | expression of β-galactosidase [2] | expression of firefly luciferase ([1]; E. coli strains FL1181 and FL1182 (divergently coupled PgyrA and PT7Al/O4), in the presence of IPTG (0.5 mM), 30 min incubation, FIG. 5D) | expression of firefly luciferase of FL #1181 [1]
CC1(C)S[C@@H]2[C@H](NC(=O)[C@H](N)c3ccccc3)C(=O)N2[C@H]1C(=O)O [ampicillin] | inhibited; also recorded: inhibition | – | – | –
O=C(O)c1cn(C2CC2)c2cc(N3CCNCC3)c(F)cc2c1=O [ciprofloxacin] | – | inhibited | substantially increased; also recorded: greatly enhanced; also recorded: specifically enhanced | stimulation
CCN1CCN(c2cc3c(cc2F)c(=O)c(C(=O)O)cn3C2CC2)CC1 [enrofloxacin] | – | – | – | stimulation
CCn1cc(C(=O)O)c(=O)c2cc(F)c(N3CCNCC3)cc21 [norfloxacin] | – | – | – | stimulation
CN[C@@H]1[C@H](O)[C@H](NC)[C@H]2O[C@@]3(O)C(=O)C[C@@H](C)O[C@H]3O[C@@H]2[C@H]1O [spectinomycin] | inhibition | – | – | –
